Assay results from patent publication US10364256B2 (GlaxoSmithKline Intellectual Property Development Limited, priority 2015, dated 2019).
Where two headings read alike, the source gives them in different places.

Key:
[1] = system: NQO1 specific enzyme activity in BEAS-2B cells (marker for NRF2 activation); assay: BEAS-2B NQO1 MTT Assay; type: cell-based; conditions: Homo sapiens, compound incubated 48 hours, read-out: EC50 (NQO1 specific enzyme activity induction)
Summary of the method: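 BEAS-2B cells treated with compound for 48 h at 37 °C, then lysed; NQO1 activity in lysates measured kinetically by MTT reduction at A570 over 30 min. pEC50 from 3-parameter fit of ΔOD/min versus log concentration; lysate also taken for Cell Titer Glo.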

[2] = target: T1, full length Keap1 protein / full length NRF2 protein (Homo sapiens, UniProt Q14145); assay: NRF2-Keap1 TR-FRET Low Protein Assay; type: binding; conditions: 1.25 nM Keap1 FlagHis and 2.5 nM biotin-NRF2 added
T1 construct: full length NRF2 protein and full length Keap1 protein (Keap1 exists a dimer) are used; His
T1 sequence (Q14145 whole entry): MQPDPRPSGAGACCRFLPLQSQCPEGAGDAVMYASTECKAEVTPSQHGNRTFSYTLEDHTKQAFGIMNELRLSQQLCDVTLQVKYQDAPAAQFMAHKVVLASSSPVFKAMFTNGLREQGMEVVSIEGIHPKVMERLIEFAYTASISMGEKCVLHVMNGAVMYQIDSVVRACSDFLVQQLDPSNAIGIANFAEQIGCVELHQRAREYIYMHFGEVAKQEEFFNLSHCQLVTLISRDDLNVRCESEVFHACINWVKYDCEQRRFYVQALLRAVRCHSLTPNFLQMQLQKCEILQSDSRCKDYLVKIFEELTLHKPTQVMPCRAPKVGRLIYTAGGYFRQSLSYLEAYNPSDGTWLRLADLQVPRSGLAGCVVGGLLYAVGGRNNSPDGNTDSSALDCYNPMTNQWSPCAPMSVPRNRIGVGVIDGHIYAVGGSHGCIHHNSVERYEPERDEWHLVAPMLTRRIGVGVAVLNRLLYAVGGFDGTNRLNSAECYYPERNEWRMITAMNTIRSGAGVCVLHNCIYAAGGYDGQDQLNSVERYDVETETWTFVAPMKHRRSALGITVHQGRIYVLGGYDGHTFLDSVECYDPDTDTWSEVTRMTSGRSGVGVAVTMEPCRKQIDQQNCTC
Summary of the method: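 Flag-tagged full-length Keap1 was preincubated with compound (3-fold series) for 2.25 h at 37 °C in Tris pH 8.0/MgCl2/NaCl/BSA/DTT/CHAPS. Biotin-Avi-NRF2 (added at 2.5 nM) was then bound for 1.25 h at 4 °C. Eu-streptavidin/anti-Flag-APC TR-FRET (665/615 nm) was read after 1 h at RT, and pIC50 came from a four-parameter fit.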

| Compound | EC50 ([1]; BEAS-2B, 48 h) [µM] | IC50 [2] [µM] | EC50 [1] [µM] |
| --- | --- | --- | --- |
| CCC[C@@H]1CCCCN1C(=O)c1cccc(-c2cccc(-n3nc(C)c(C(=O)O)c3C3CC3c3cn(C)nn3)c2)c1 (stereo partly drawn) [Example 202, 3-Methyl-5-(2-(1-methyl-1H-1,2,3-triazol-4-yl)cyclopropyl)-1-(3′-((R)-2-propylpiperidine-1-carbonyl)-[1,1′-biphenyl]-3-yl)-1H-pyrazole-4-carboxylic acid] | 0.1 to 1 | < 0.01 | – |
| CC1(C)CCc2cnn(-c3cccc(-c4cccc(-n5ncc(C(=O)O)c5C(F)(F)F)n4)c3)c21 [Example 204, 1-(6-(3-(6,6-Dimethyl-5,6-dihydrocyclopenta[c]pyrazol-1(4H)-yl)phenyl)pyridin-2-yl)-5-(trifluoromethyl)-1H-pyrazole-4-carboxylic Acid] | – | 0.1 to 1 | 0.1 to 1 |
| CCCC1(C)CCc2cnn(-c3cccc(-c4cccc(-n5ncc(C(=O)O)c5C5CC5)c4)c3)c21 (stereo not shown) [Example 205, 5-Cyclopropyl-1-(3′-(6-methyl-6-propyl-5,6-dihydrocyclopenta[c]pyrazol-1(4H)-yl)-[1,1′-biphenyl]-3-yl)-1H-pyrazole-4-carboxylic Acid] | – | 0.01 to 0.1 | 0.1 to 1 |
| CCCCC1CCc2cnn(-c3cccc(-c4cccc(-n5ncc(C(=O)O)c5C5CC5)c4)c3)c21 (stereo not shown) [Example 206, 1-(3′-(6-Butyl-5,6-dihydrocyclopenta[c]pyrazol-1(4H)-yl)-[1,1′-biphenyl]-3-yl)-5-cyclopropyl-1H-pyrazole-4-carboxylic Acid] | – | 0.1 to 1 | 0.1 to 1 |
| CCc1nc(-c2cccc(-c3cccc(-n4ncc(C(=O)O)c4C4CC4)c3)c2)no1 [Example 209, 5-Cyclopropyl-1-(3′-(5-ethyl-1,2,4-oxadiazol-3-yl)-[1,1′-biphenyl]-3-yl)-1H-pyrazole-4-carboxylic Acid] | – | 1 to 10 | 1 to 10 |
| Cc1nnc(-c2cccc(-c3cccc(-n4ncc(C(=O)O)c4C4CC4)c3)c2)o1 [Example 210, 5S-Cyclopropyl-1-(3′-(5-methyl-1,3,4-oxadiazol-2-yl)-[1,1′-biphenyl]-3-yl)-1H-pyrazole-4-carboxylic acid] | – | 10 to 100 | 0.1 to 1 |
| Cn1cc(C2CC2c2c(C(=O)O)cnn2-c2cccc(-c3cccc(-n4ncc5c4C(C)(C)CC5)c3)c2)nn1 (stereo not shown) [Example 212, 1-(3′-(6,6-Dimethyl-5,6-dihydrocyclopenta[c]pyrazol-1(4H)-yl)-[1,1′-biphenyl]-3-yl)-5-(2-(1-methyl-1H-1,2,3-triazol-4-yl)cyclopropyl)-1H-pyrazole-4-carboxylic Acid] | – | < 0.01 | 0.1 to 1 |
| CCC[C@@H]1CCCCN1C(=O)c1cccc(-c2cccc(-n3ncc(C(=O)O)c3C3CC3c3cnn(C)c3)c2)c1 (stereo partly drawn) [Example 213, 5-(2-(1-Methyl-1H-pyrazol-4-yl)cyclopropyl)-1-(3′-((R)-2-propylpiperidine-1-carbonyl)-[1,1′-biphenyl]-3-yl)-1H-pyrazole-4-carboxylic Acid] | 0.1 to 1 | < 0.01 | – |
| CCC[C@@H]1CCCCN1C(=O)c1cccc(-c2cccc(-n3ncc(C(=O)O)c3C3CC3c3cnn(C)c3)c2)c1F (stereo partly drawn) [Example 214, 1-(2′-Fluoro-3′-((R)-2-propylpiperidine-1-carbonyl)-[1,1′-biphenyl]-3-yl)-5-(2-(1-methyl-1H-pyrazol-4-yl)cyclopropyl)-1H-pyrazole-4-carboxylic Acid] | 0.1 to 1 | < 0.01 | – |
| Cn1cc(C2CC2c2c(C(=O)O)cnn2-c2cccc(-c3cccc(C(=O)CC4CCCCC4)c3)c2)nn1 (stereo not shown) [Example 215, 1-(3′-(2-Cyclohexylacetyl)-[1,1′-biphenyl]-3-yl)-5-(2-(1-methyl-1H-1,2,3-triazol-4-yl)cyclopropyl)-1H-pyrazole-4-carboxylic Acid] | – | 0.01 to 0.1 | 0.1 to 1 |
| COC(CC1CCCCC1)c1cccc(-c2cccc(-n3ncc(C(=O)O)c3C3CC3c3cn(C)nn3)c2)c1 (stereo not shown) [Example 216, 1-(3′-(2-Cyclohexyl-1-methoxyethyl)-[1,1′-biphenyl]-3-yl)-5-(2-(1-methyl-1H-1,2,3-triazol-4-yl)cyclopropyl)-1H-pyrazole-4-carboxylic Acid] | – | 0.01 to 0.1 | 0.01 to 0.1 |
| Cn1cc(C2CC2c2c(C(=O)O)cnn2-c2cccc(-c3cccc(C(O)CC4CCCCC4)c3)c2)nn1 (stereo not shown) [Example 217, 1-(3′-(2-Cyclohexyl-1-hydroxyethyl)-[1,1′-biphenyl]-3-yl)-5-(2-(1-methyl-1H-1,2,3-triazol-4-yl)cyclopropyl)-1H-pyrazole-4-carboxylic acid] | – | 0.01 to 0.1 | 0.1 to 1 |
| CC(CC1CCCCC1)Oc1cccc(-c2cccc(-n3ncc(C(=O)O)c3C3CC3c3cn(C)nn3)c2)c1 (stereo not shown) [Example 218, 1-(3′-((1-Cyclohexylpropan-2-yl)oxy)-[1,1′-biphenyl]-3-yl)-5-(2-(1-methyl-1H-1,2,3-triazol-4-yl)cyclopropyl)-1H-pyrazole-4-carboxylic Acid] | – | 0.01 to 0.1 | 0.01 to 0.1 |
| CC(Oc1cccc(-c2cccc(-n3ncc(C(=O)O)c3C3CC3c3cn(C)nn3)c2)c1)C1CCCCC1 (stereo not shown) [Example 219, 1-(3′-(1-Cyclohexylethoxy)-[1,1′-biphenyl]-3-yl)-5-(2-(1-methyl-1H-1,2,3-triazol-4-yl)cyclopropyl)-1H-pyrazole-4-carboxylic acid] | 0.01 to 0.1 | 0.01 to 0.1 | – |
| Cn1cc(C2CC2c2c(C(=O)O)cnn2-c2cccc(-c3cccc(OCc4ccccc4)c3)c2)nn1 (stereo not shown) [Example 221] | – | 0.1 to 1 | 0.1 to 1 |
| Cn1cc(C2CC2c2c(C(=O)O)cnn2-c2cccc(-c3cccc(OCc4ccccc4F)c3)c2)nn1 (stereo not shown) [Example 222, 1-(3′-((2-Fluorobenzyl)oxy)-[1,1′-biphenyl]-3-yl)-5-(2-(1-methyl-1H-1,2,3-triazol-4-yl)cyclopropyl)-1H-pyrazole-4-carboxylic acid] | – | 0.01 to 0.1 | 0.1 to 1 |
| Cn1cc(C2CC2c2c(C(=O)O)cnn2-c2cccc(-c3cccc(OCc4ccc(F)cc4)c3)c2)nn1 (stereo not shown) [Example 223, 1-(3′-((4-Fluorobenzyl)oxy)-[1,1′-biphenyl]-3-yl)-5-(2-(1-methyl-1H-1,2,3-triazol-4-yl)cyclopropyl)-1H-pyrazole-4-carboxylic acid] | – | 0.1 to 1 | 0.1 to 1 |
| Cn1cc(C2CC2c2c(C(=O)O)cnn2-c2cccc(-c3cccc(OCc4cccc(F)c4)c3)c2)nn1 (stereo not shown) [Example 224, 1-(3′-((3-Fluorobenzyl)oxy)-[1,1′-biphenyl]-3-yl)-5-(2-(1-methyl-1H-1,2,3-triazol-4-yl)cyclopropyl)-1H-pyrazole-4-carboxylic acid] | – | 0.1 to 1 | 0.1 to 1 |
| Cn1cc(C2CC2c2c(C(=O)O)cnn2-c2cccc(-c3cccc(OCCC(C)(C)C)c3)c2)nn1 (stereo not shown) [Example 225, 1-(3′-(3,3-Dimethylbutoxy)-[1,1′-biphenyl]-3-yl)-5-(2-(1-methyl-1H-1,2,3-triazol-4-yl)cyclopropyl)-1H-pyrazole-4-carboxylic acid] | – | 0.01 to 0.1 | 0.01 to 0.1 |
| CC(Oc1cccc(-c2cccc(-n3ncc(C(=O)O)c3C3CC3c3cn(C)nn3)c2)c1)C1CCOCC1 (stereo not shown) [Example 227, 5-(2-(1-Methyl-1H-1,2,3-triazol-4-yl)cyclopropyl)-1-(3′-(1-(tetrahydro-2H-pyran-4-yl)ethoxy)-[1,1′-biphenyl]-3-yl)-1H-pyrazole-4-carboxylic Acid] | – | 0.01 to 0.1 | 0.1 to 1 |
| CC(Oc1cccc(-c2cccc(-n3ncc(C(=O)O)c3C3CC3c3cn(C)nn3)c2)c1)C1CCCC1 (stereo not shown) [Example 228, 1-(3′-(1-Cyclopentylethoxy)-[1,1′-biphenyl]-3-yl)-5-(2-(1-methyl-1H-1,2,3-triazol-4-yl)cyclopropyl)-1H-pyrazole-4-carboxylic acid] | – | 0.01 to 0.1 | 0.001 to 0.01 |
| Cn1cc(C2CC2c2c(C(=O)O)cnn2-c2cccc(-c3cccc(OC4CCCCC4)c3)c2)nn1 (stereo not shown) [Example 229] | – | 0.01 to 0.1 | 0.01 to 0.1 |
| CC(Oc1cccc(-c2cccc(-n3ncc(C(=O)O)c3C3CC3c3cn(C)nn3)c2)c1)C1CC1 (stereo not shown) [Example 231, 1-(3′-(1-Cyclopropylethoxy)-[1,1′-biphenyl]-3-yl)-5-(2-(1-methyl-1H-1,2,3-triazol-4-yl)cyclopropyl)-1H-pyrazole-4-carboxylic acid] | – | 0.01 to 0.1 | 0.1 to 1 |
| Cn1cc(C2CC2c2c(C(=O)O)cnn2-c2cccc(-c3cccc(OC4CCCN(C(=O)OC(C)(C)C)C4)c3)c2)nn1 (stereo not shown) [Example 232, 1-(3′-((1-(tert-Butoxycarbonyl)piperidin-3-yl)oxy)-[1,1′-biphenyl]-3-yl)-5-(2-(1-methyl-1H-1,2,3-triazol-4-yl)cyclopropyl)-1H-pyrazole-4-carboxylic acid] | – | 0.01 to 0.1 | 0.1 to 1 |
| Cn1cc(C2CC2c2c(C(=O)O)cnn2-c2cccc(-c3cccc(CCC4CCCCC4)c3)c2)nn1 (stereo not shown) [Example 233, 1-(3′-(2-Cyclohexylethyl)-[1,1′-biphenyl]-3-yl)-5-(2-(1-methyl-1H-1,2,3-triazol-4-yl)cyclopropyl)-1H-pyrazole-4-carboxylic Acid] | – | 0.01 to 0.1 | 0.001 to 0.01 |
| Cn1cc(C2CC2c2c(C(=O)O)cnn2-c2cccc(-c3cccc(OC4CCOCC4)c3F)c2)nn1 (stereo not shown) [Example 234, 1-(2′-Fluoro-3′-((tetrahydro-2H-pyran-4-yl)oxy)-[1,1′-biphenyl]-3-yl)-5-(2-(1-methyl-1H-1,2,3-triazol-4-yl)cyclopropyl)-1H-pyrazole-4-carboxylic Acid] | – | 0.01 to 0.1 | 1 to 10 |
